41 compounds from ChEMBL document CHEMBL1201862, “PubChem BioAssay data set” (2004) can be followed below.

Each structure is given as a SMILES string. Active and inactive are the calls of the source. Bounds are passed on as bounds.

Among the targets are Cytochrome P450 2C9 (Homo sapiens, UniProt P11712); Cytochrome P450 2D6 (Homo sapiens, UniProt P10635); Cytochrome P450 3A4 (Homo sapiens, UniProt P08684).
Assay [1] concerns the target T1, Heat shock factor protein 1 (Mus musculus, UniProt P38532).
T1 sequence (P38532 whole entry): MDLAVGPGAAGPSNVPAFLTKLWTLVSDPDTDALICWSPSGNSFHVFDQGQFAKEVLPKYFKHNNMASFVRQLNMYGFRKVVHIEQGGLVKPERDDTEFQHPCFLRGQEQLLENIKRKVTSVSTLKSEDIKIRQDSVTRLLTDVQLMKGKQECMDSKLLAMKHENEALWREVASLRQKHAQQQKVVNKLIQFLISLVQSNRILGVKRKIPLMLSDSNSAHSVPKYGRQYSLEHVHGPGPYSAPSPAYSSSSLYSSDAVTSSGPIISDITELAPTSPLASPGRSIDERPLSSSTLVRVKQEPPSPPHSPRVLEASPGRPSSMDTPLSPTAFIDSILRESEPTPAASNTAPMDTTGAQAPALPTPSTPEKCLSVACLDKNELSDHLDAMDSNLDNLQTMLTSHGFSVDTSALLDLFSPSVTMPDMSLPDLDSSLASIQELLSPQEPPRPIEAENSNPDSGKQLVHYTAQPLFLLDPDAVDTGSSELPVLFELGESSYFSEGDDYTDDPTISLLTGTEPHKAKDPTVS
The assay is described as follows: HSF1 potentiators in luciferase reporter cells, confirmation, cell-based, NIH3T3, luminescence, dose retest (AID 435004).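 Also: stress induced by proteasome inhibitor MG132 added 30 min after compound; luciferase reporter driven by HSF1 response element in NIH3T3 cells; actives raise luminescence as potentiators of the MG132 stress response.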 The format is functional. In general terms: A reporter such as luciferase makes a cellular process visible.

For another assay, the target named is T2, Protein skinhead-1 (Caenorhabditis elegans, UniProt P34707).
T2 sequence (P34707 whole entry): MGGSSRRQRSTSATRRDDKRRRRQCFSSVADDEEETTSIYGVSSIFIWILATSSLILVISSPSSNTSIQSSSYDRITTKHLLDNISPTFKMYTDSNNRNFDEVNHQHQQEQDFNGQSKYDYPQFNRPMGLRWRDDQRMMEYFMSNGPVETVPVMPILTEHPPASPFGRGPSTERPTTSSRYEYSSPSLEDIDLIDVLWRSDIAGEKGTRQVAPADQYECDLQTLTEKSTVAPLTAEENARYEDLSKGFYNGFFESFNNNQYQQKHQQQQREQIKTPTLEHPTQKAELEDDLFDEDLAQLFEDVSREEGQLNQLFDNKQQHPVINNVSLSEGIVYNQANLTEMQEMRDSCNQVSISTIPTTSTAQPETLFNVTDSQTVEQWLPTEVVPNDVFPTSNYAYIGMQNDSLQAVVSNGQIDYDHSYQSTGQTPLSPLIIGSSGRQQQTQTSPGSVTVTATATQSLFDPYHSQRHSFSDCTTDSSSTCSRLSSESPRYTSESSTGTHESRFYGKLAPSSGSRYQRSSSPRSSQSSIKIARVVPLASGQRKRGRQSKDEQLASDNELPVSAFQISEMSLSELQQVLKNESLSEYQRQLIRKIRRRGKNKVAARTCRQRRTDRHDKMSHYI
The format is functional.

The next assay can be described thus: cells. It counts as functional.
Assay [2] deals with T3, Corticotropin-releasing factor receptor 2/Corticotropin-releasing factor-binding protein (Homo sapiens, UniProt P24387+Q13324).
T3 sequence (Q13324 whole entry): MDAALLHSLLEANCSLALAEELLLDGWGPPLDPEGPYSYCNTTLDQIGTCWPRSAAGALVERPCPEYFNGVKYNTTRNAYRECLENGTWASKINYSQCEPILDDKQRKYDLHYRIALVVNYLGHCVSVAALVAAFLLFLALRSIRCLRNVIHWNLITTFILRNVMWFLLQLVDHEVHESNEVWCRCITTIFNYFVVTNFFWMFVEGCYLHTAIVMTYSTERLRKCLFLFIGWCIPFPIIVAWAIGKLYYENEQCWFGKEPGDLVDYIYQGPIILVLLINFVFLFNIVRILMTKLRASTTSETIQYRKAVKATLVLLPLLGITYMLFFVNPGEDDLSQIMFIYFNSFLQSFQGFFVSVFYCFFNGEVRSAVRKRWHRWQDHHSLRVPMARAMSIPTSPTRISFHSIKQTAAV
T3 sequence (P24387 whole entry): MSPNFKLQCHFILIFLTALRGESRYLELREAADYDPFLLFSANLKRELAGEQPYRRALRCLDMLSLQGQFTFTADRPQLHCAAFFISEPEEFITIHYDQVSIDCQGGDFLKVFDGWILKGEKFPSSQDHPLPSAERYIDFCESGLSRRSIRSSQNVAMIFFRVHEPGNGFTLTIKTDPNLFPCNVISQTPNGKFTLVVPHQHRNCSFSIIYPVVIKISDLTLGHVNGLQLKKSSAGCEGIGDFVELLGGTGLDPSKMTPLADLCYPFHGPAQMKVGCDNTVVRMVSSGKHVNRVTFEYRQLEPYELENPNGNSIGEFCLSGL
The assay is described as follows: Dose Response confirmation of uHTS hits for small molecule antagonists of the CRF-binding protein and CRF-R2 receptor complex. The format is functional. Particulars: read-out: IC50_Mean.

For assay [3], the target named is T3, Corticotropin-releasing factor receptor 2/Corticotropin-releasing factor-binding protein. The assay is described as follows: activators of CRF receptor 2 with binding protein – uHTS hits, confirmation (AID 602473). The format is functional. Particulars: read-out: EC50_Mean.
A short description of assay [4]: Luminescence Cell-Based Dose Retest to Confirm Inhibitors of Cancer Stem Cells. [Related pubchem assays (depositor defined):AID2717, AID2721]. The format is functional. The note with it: Homo sapiens.
The next assay deals with H9c2. The assay is described as follows: cells. It counts as functional, cell-based. Particulars: Rattus norvegicus, H9c2, Myocardium.
A further assay has as its target T4, Cytochrome P450 1A2 (Homo sapiens, UniProt P05177).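 Also: PubChem cytochrome P450 panel assay, CYP1A2 panel member.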
T4 sequence (P05177 whole entry): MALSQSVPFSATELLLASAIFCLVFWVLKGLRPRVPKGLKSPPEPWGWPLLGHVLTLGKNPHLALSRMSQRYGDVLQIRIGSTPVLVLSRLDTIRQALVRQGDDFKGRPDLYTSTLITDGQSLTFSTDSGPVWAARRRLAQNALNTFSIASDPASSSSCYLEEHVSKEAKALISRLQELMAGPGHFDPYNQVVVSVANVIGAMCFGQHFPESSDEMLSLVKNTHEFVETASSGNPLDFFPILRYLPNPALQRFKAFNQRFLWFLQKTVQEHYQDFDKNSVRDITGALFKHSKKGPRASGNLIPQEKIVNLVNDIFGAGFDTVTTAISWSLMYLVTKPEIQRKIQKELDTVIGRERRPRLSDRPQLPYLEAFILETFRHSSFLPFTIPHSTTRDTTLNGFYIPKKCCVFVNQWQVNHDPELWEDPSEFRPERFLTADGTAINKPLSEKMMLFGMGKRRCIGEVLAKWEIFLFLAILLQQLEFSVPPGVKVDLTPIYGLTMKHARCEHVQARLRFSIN

Chain of Cytochrome P450 2C9 (P11712 whole entry): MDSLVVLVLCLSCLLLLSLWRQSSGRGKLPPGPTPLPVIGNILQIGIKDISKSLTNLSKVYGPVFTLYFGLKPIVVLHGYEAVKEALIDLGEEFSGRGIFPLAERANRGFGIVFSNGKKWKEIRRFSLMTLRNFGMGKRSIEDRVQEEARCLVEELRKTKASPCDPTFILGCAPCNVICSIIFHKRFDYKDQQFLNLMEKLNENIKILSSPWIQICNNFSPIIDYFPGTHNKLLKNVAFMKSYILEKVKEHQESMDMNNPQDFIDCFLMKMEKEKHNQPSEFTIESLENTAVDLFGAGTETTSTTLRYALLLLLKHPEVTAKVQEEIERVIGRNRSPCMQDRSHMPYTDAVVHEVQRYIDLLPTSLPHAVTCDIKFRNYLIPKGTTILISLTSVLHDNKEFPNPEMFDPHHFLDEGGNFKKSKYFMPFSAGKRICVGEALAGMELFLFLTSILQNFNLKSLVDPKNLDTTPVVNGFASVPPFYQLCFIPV
Chain of Cytochrome P450 2D6 (P10635 whole entry): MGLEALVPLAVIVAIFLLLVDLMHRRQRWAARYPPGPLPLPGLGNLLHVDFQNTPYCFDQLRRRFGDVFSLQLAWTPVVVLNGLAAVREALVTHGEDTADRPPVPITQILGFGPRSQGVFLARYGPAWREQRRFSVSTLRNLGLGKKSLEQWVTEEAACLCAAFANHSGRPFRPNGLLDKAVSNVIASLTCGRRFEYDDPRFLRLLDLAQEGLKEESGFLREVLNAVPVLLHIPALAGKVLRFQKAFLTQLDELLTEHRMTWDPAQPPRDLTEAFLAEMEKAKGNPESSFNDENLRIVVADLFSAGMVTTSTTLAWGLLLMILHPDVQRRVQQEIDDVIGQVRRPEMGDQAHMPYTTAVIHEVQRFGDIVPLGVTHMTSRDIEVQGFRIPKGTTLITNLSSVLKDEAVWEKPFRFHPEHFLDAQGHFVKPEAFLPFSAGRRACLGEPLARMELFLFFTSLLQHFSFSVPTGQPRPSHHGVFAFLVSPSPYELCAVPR
Chain of Cytochrome P450 3A4 (P08684 whole entry): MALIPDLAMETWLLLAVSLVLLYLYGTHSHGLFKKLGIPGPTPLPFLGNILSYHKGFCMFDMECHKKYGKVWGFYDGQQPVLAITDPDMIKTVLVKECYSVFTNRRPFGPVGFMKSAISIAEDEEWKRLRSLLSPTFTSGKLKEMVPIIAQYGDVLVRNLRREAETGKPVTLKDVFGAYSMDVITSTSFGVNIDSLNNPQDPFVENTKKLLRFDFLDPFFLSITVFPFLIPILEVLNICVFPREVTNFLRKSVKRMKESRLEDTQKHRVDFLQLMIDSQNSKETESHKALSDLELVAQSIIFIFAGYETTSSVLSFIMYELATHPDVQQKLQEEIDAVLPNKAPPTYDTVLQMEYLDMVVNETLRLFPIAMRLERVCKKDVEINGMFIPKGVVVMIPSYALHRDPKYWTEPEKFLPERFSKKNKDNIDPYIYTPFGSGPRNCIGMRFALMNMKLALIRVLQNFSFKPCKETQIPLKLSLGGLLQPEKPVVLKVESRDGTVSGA

For the compound `Cc1ccc(/C=C2\OC(=O)c3ccccc32)cc1`, the AC50 on Cytochrome P450 2C9 was 0.355 µM (inconclusive). Consider `CCOc1ccc(S(=O)(=O)NCCSc2ccccc2)cc1`, for which the EC50 in [1] was > 260 µM (inactive). As for `Nc1cc2c(cc1Cl)-c1ccccc1C2`, the IC50 on Protein skinhead-1 is 52.5 µM (inactive).

As to `COC(=O)C(C)Sc1nc2c(c(=O)n(C)c(=O)n2C)n1CCC(C)C` (stereo not drawn), the EC50 in [1] is > 260 µM (inactive). In the case of `Cc1cccc(C)c1NCc1nnc(SCC(=O)Nc2nc(-c3ccccc3)cs2)n1-c1ccccc1`, in assay [1], the EC50 is > 260 µM (inactive). Consider `CCOC(=O)C1CCN(C(=O)COc2cc(C)c(Br)c(C)c2)CC1`, for which the IC50 in the assay “cells” was 30.2 µM (active). Same read-out and setting: the result for `COc1cc(/C=C/c2ccc3c([N+](=O)[O-])cccc3n2)ccc1OCC(=O)O` reads 2.39 µM (active). Take `Cc1noc(C(F)(F)F)c1C(=O)NNC(=O)c1cccc(C(F)(F)F)c1`: in assay [2], the IC50 was > 47.1 µM (inactive). Besides, in assay [3], the EC50 was > 53 µM (inactive). Take `COc1ccc([N+](=O)[O-])cc1NCc1ccccc1C`: the concentration at half-maximal activity (AC50) on Cytochrome P450 2C9 and at Cytochrome P450 2D6 was 17.8 µM (inconclusive) each time. For the compound `CCC(C)NC(=O)CC(NS(=O)(=O)c1ccc(Cl)cc1)c1ccco1` (stereo not drawn), the EC50 in assay [1] was > 260 µM (inactive).

`CCc1ccc(-n2c(SCC(=O)Nc3cc(C)[nH]n3)nc3nncc-3c2O)cc1`: the IC50 on Protein skinhead-1 is > 100 µM (inactive). With `Cc1ccc(-n2nc3c(c2NC(=O)c2ccc(OC(C)C)cc2)C[S+]([O-])C3)cc1` (stereo not drawn), the IC50 in [2] was > 47.1 µM (inactive). The EC50 in assay [3] was > 53 µM (inactive). In the case of `CC(C)(CN)CC(=O)O`, the EC50 in assay [1] is > 260 µM (inactive). On to `COC(=O)C1=C(C)N(c2ccc(OC)cc2)C(C)=C(C(=O)OC)C1c1ccccc1`, for which, in [2], the IC50 was > 47.1 µM (inactive). Also, in assay [3], the EC50 is > 53 µM (inactive). The matching figures for `O=C(CCN1CCCCC1=O)NC1CCCN(Cc2ccc(Cl)cc2)C1` (stereo not drawn): > 47.1 µM (inactive) and > 53 µM (inactive). Turning to `CCOC(=O)CN1NC2(CCCC(C)C2)N=C1S` (stereo not drawn), the IC50 in “cells” is 48.9 µM (active). Regarding `O=C1CC(N(Cc2ccc3c(c2)OCO3)C(=O)Nc2ccc(F)cc2)C(=O)N1c1ccccc1` (stereo not drawn), in assay [1], the EC50 was > 260 µM (inactive). `O=C1Nc2ccccc2C(O)(C(=O)NCc2ccco2)N1c1ccc(Cl)c(Cl)c1` (stereo not drawn): the IC50 on Protein skinhead-1 was > 100 µM (inactive). As to `CC(/C=C/c1cccs1)=C\C(=O)O`, the EC50 in [1] is > 260 µM (inactive). `Cc1ccc(C(=O)OCC(=O)N2CCCCCC2)c(O)c1`: the IC50 in the assay “cells” is 11.1 µM (active).

In the case of `O=C(Nc1ccc(Cl)cc1)OCc1cc(-c2ccccc2)on1`, the AC50 on Cytochrome P450 2C9 is 2.82 µM (inconclusive); on Cytochrome P450 2D6, 3.98 µM (inconclusive).

As for `CC(=O)CSc1nc2ccccc2s1`, the IC50 on Protein skinhead-1 is > 100 µM (inactive). Turning to `O=[N+]([O-])c1cccc2ccc(/C=C/c3ccc(F)cc3)nc12`, the IC50 at Protein skinhead-1 was > 100 µM (inactive). As to `CC(C)N(C(=O)C[n+]1ccsc1N)c1ccccc1`, the IC50 in assay [2] was > 47.1 µM (inactive). Further, in [3], the EC50 was > 53 µM (inactive). Turning to `CCOC(=O)C1=C(C)N=C(C)/C(=C(\O)OCC)C1c1sccc1C` (stereo not drawn), the AC50 at Cytochrome P450 2C9 was 0.891 µM (inconclusive). In the case of `COc1ccc(OC)c(-n2c(=O)c3ccccc3c3ccccc3c2=O)c1`, in [1], the EC50 was 30.2 µM (active). For `CN(C)/C=C/C(=O)c1cccc(Oc2ncccn2)c1`, the EC50 in assay [1] is > 260 µM (inactive). In the case of `Clc1ccc(Nc2ncnc3c2cnn3-c2ccccc2)cc1`, the IC50 on Protein skinhead-1 is > 100 µM (inactive). As for `Cc1ccc(C(=O)N(C)CC(=O)Nc2ccc(N3CCOCC3)cc2)s1`, the IC50 on Protein skinhead-1 was > 100 µM (inactive).

For the compound `C/C(=N\OCC(=O)Nc1ccc(F)c(F)c1F)c1cc2ccccc2o1`, the IC50 in [2] is > 47.1 µM (inactive). The EC50 in [3] was > 53 µM (inactive). As to `O=C(O)c1ccc2c(c1)CCCN2`, the IC50 on Protein skinhead-1 was > 100 µM (inactive).

On to `COc1ccc(CNC(=O)c2sc(=S)n(-c3ccc(OC)cc3)c2N)cc1`, for which, in assay [2], the IC50 was > 47.1 µM (inactive). Besides, the EC50 in assay [3] is > 53 µM (inactive). In the case of `O=[N+]([O-])c1ccc(/C=N/NS(=O)(=O)c2ccc(Cl)cc2)o1`, the IC50 in the assay “cells” was 6.23 µM (active).

Regarding `NC(=O)c1ccc([N+](=O)[O-])cc1SCc1ccccc1`, the concentration at half-maximal activity (AC50) at Cytochrome P450 2C9 was 28.2 µM (inconclusive); at Cytochrome P450 3A4 it was 12.6 µM (inconclusive). Consider `Cc1cccn2c(/C=N/OCc3cccc(F)c3)c(-c3ccc(Cl)cc3)nc12`, for which the AC50 in assay [4] is 4.13 µM (active); on Cytochrome P450 3A4, 14.1 µM (inconclusive). Also, the IC50 in [2] was > 47.1 µM (inactive). Also, the EC50 in assay [3] was > 53 µM (inactive). As for `Cc1cccc(-c2noc(C(C)NC(=O)c3ccco3)n2)c1` (stereo not drawn), the IC50 in assay [2] was > 47.1 µM (inactive). Further, the EC50 in assay [3] was > 53 µM (inactive). In the case of `COc1ccccc1C(=O)NCCC(=O)N1CCN(c2ccccc2O)CC1`, the IC50 in assay [2] is > 47.1 µM (inactive). Moreover, the EC50 in [3] was > 53 µM (inactive). As to `O=[N+]([O-])c1ccc(Cc2nnc(O)c3ccccc23)cc1`, the IC50 was > 100 µM (inactive) at Protein skinhead-1 and > 79 µM (inactive) in the assay on H9c2. Regarding `Cc1ccc(N2Cc3ccccc3OC(C)C2=O)cc1` (stereo not drawn), the EC50 in assay [1] was > 260 µM (inactive). Regarding `COC(=O)c1cc(/C=C/c2ccccc2)on1`, at Cytochrome P450 1A2, the AC50 was 2 µM (inconclusive). Besides, the IC50 in “cells” was 5.44 µM (active). For the compound `CC(=O)Oc1ccc(/C=C2\N=C(C3CCCCC3)OC2=O)cc1`, in “cells”, the IC50 was 33.9 µM (active).

By AC50 is commonly meant the concentration at which the activity in the assay is half-maximal.
